Test results from US6528260B1, “Biallelic markers related to genes involved in drug metabolism” (Genset, S.A., priority 1999, dated 2003).

What was measured:
[1] = system: DME-related biallelic markers; assay: Genotyping by microsequencing: allele frequencies of DME-related biallelic markers in random Caucasian populations; design: species or system human; conditions: Caucasian FRENCH
Description: The biallelic markers identified as described above were further confirmed and their respective frequencies were determined through microsequencing. Microsequencing was carried out on individual DNA samples obtained as described herein.
Amplification of genomic DNA fragments from individual DNA samples was performed as described in Example 1 using the same set of PCR primers (See Table 17). Microsequencing was carried out on the amplified fragments using specific primers (See Table 16). The preferred primers used in microsequencing had about 19 nucleotides in length and hybridized just upstream of the considered polymorphic base.
The microsequencing reactions were performed as follows: 5 μl of PCR products were added to 5 μl purification mix (2U SAP (Shrimp alkaline phosphate) (Amersham E70092X)); 2U Exonuclease I (Amersham E70073Z); and 1 μl SAP buffer (200 mM Tris-HCl pH8, 100 mM MgCl2) in a microtiter plate. The reaction mixture was incubated 30 minutes at 37° C., and denatured 10 minutes at 94° C. afterwards. To each well was then added 20 μl of microsequencing reaction mixture containing: 10 pmol microsequencing oligonucleotide (19 mers, GENSET, crude synthesis, 5 OD), 1 U Thermosequenase (Amersham E79000G), 1.25 μl Thermosequenase buffer (260 mM Tris HCl pH 9.5, 65 mM MgCl2), and the two appropriate fluorescent ddNTPs complementary to the nucleotides at the polymorphic site corresponding to both polymorphic bases (11.25 nM TAMRA-ddTTP; 16.25 nM ROX-ddCTP; 1.675 nM REG-ddATP; 1.25 nM RHO-ddGTP; Perkin Elmer, Dye Terminator Set 401095). After 4 minutes at 94° C., 20 PCR cycles of 15 sec at 55° C., 5 sec at 72° C., and 10 sec at 94° C. were carried out in a Tetrad PTC-225 thermocycler (MJ Research). The microtiter plate was centrifuged 10 sec at 1500 rpm. The unincorporated dye terminators were removed by precipitation with 19 μl MgCl2 2 mM and 55 μl 100% ethanol. After 15 minute incubation at room temperature, the microtiter plate was centrifuged at 3300 rpm 15 minutes at 4° C. After discarding the supernatants, the microplate was evaporated to dryness under reduced pressure (Speed Vac). Samples were resuspended in 2.5 μl formamide EDTA loading buffer and heated for 2 min at 95° C. 0.8 μl microsequencing reaction were loaded on a 10% (19:1) polyacrylamide sequencing gel. The data were collected by an ABI PRISM 377 DNA sequencer and processed using the GENESCAN software (Perkin Elmer).
The frequencies for both alleles are shown for preferred MGST-II, ME1, UGT1A7 and UGT2B4 markers in Tables 19, 20, 21 and 22, respectively.

[2] = system: smooth muscle in peripheral airways; conditions: both in vitro and in vivo; cited from earlier work
[3] = system: serum level of alanine aminotransferase (ALT); assay: Clinical study of zileuton: hepatotoxicity monitored by serum ALT level; assay type: in vivo, human; conditions: asthmatic individuals treated with zileuton
Excerpt: In a preferred embodiment, the trait considered was a side-effect upon drug treatment, the study involved two populations derived from a clinical study of the anti-asthmatic drug zileuton. The case population was composed of asthmatic individuals treated with zileuton showing zileuton-associated hepatotoxicity monitored by the serum level of alanine aminotransferase (ALT) and the control population was composed of asthmatic individuals treated with zileuton and having no increased serum level of ALT. Inclusion criteria and association between the biallelic markers of the present invention and zileuton-associated hepatotoxicity are further described below and in Example 4.
Zileuton (Zyflo™) is an active inhibitor of 5-lipoxygenase, the enzyme that catalyzes the formation of leukotrienes from arachidonic acid, indicated for prophylaxis and chronic treatment of asthma. […] In the present invention the ALT test (serum level of alanine aminotransferase) was used, which is considered the most sensitive indicator of liver injury.
Two groups of unrelated individuals were used in this association study in accordance with the invention: the case-control populations. The case population was composed of 89 asthmatic individuals treated with zileuton showing zileuton-associated hepatotoxicity monitored by the serum level of alanine aminotransferase (ALT) and the control population was composed of 208 asthmatic individuals treated with zileuton and having no increased serum ALT level.
The side effect examined in this study was the hepatotoxicity experienced by asthmatic individuals as a result of their treatment with Zileuton as part of a clinical study. […] Hepatotoxicity was monitored by measuring the serum levels of alanine aminotransferase (ALT), which is a sensitive indicator of liver cell damage.
As mentioned above, an association study is more informative if the populations considered present extreme phenotypes. […]

12-124-194 (DNA TCTAGCTGGAGCCTGCGCTTGAGYAAAGAGCTGAACAACCAGATTGC; allele 24: 12-124-194 : polymorphic base C or T; listed as Homo Sapiens)
allele frequency C [1]: 19.41 | allele frequency T [1]: 80.59

12-141-159 (DNA CTCAGTGAGTGAGTTGAAGGGCTYAGTCAACTATTTGTTGATACCAC; allele 24: 12-141-159 : polymorphic base T or C; listed as Homo Sapiens)
allele frequency A [1]: 37.5 | allele frequency G [1]: 62.5

12-142-321 (DNA GCAGCACAGCGGTCTGCGTGGAARTGAGGCACCGGGTGTGGGCGGGG; allele 24: 12-142-321 : polymorphic base A or G; listed as Homo Sapiens)
allele frequency A [1]: 54.44 | allele frequency G [1]: 45.56

12-143-453 (DNA TGGAGTGGAGCTTGGTTCTGGCCRTGGGCTGGGGAAGGGAGGTCCGG; allele 24: 12-143-453 : polymorphic base A or G; listed as Homo Sapiens)
allele frequency A [1]: 50.61 | allele frequency G [1]: 49.39

CCCCC/C=C\C\C=C/C=C/C=C/[C@@H](SC[C@H](NC(=O)CC[C@H](N)C(=O)O)C(=O)NCC(=O)O)[C@@H](O)CCCC(=O)O [LTC4, leukotriene C4]
bronchoconstrictor potency relative to histamine [2]: 1000 times

CCCCC/C=C\C\C=C/C=C/C=C/[C@@H](SC[C@H](N)C(=O)NCC(=O)O)[C@@H](O)CCCC(=O)O [LTD4, Leukotriene D4]
bronchoconstrictor potency relative to histamine [2]: 1000 times

CC(c1cc2ccccc2s1)N(O)C(N)=O (stereo not shown) [Zileuton, zileuton]
ALT+ population (at least 3 times the upper limit of normal level of ALT) as share of total asthmatic individuals in the study ([3]; 89 individuals): 4% | ALT- population (less than 1xULN of ALT) as share of total asthmatic individuals in the study ([3]; 208 individuals): 35% | asthmatic individuals that did not experience Zileuton-associated ALT increase ([3]; compared to ALT levels prior to zileuton intake): More than 90%
